# US20010034887A1, “Transformation of guar” (priority 1994, published 2001)
# Where a name gives a salt, the structure may show the parent alone.
# Tested on: guar explants
# Experiment: Agrobacterium-mediated transformation of guar cotyledon explants: selection, shoot harvest and GUS test
# Format: cell-based, Cyamopsis tetragonoloba
# Procedure: Cotyledons with about 2 mm of hypocotyl were excised from 12 day old seedlings. The cotyledons were then torn apart using a tweezers to create wound surfaces and placed in the Agrobacterium-suspension for 30 min.
# Co-cultivation proceeded for 3 days at 25° C. and a 12 h/12 h day/night regime. After co-culture the explants were washed with 1/10 MS-medium, to which 100 mg/l carbenicillin, 100 mg/l cefotaxime and 1000 mg/l lysozyme had been added, 2-3 times for 45 min. while stirring at 100 rpm.
# The explants were transferred to selection medium and incubated as above (25° C., 12 h day/12 h night).
# After 4 weeks, shoots larger than 3 mm were harvested and transferred to shoot medium. After 10-14 days the shoots were tested for activity of the reporter gene β-glucuronidase (GUS), see below. GUS-positive shoots were transferred to fresh shoot medium while the GUS-negative shoots were discarded.
# After the first harvest, explants (from which shoots had been harvested) were transferred to a second selection medium with a lower kanamycin concentration (50 mg/l) . After another 4 weeks shoots were harvested and GUS-tested. The positive shoots were transferred to fresh medium, while the negatives were discarded.
# Tips of young leaves were excised and transferred to a multi-dish well containing 200 μl X-gluc solution. After incubation for 16 h at 35° C. the leaf tips were destained with 96% ethanol and the degree of blue stain was determined under a microscope.
# [1] = kanamycin sulfate 125 mg/l in selection medium, 1600 explants, strain EHA 101
# [2] = kanamycin sulfate 135 mg/l in selection medium, 1600 explants, strain EHA 101
# [3] = kanamycin sulfate 145 mg/l in selection medium, 1600 explants, strain EHA 101
# [4] = 0.1-2 mg/l PCIB during selection
# [5] = thidiazuron 0.3 mg/l, 742 explants
# [6] = thidiazuron 1.0 mg/l, 741 explants
# [7] = thidiazuron 3.0 mg/l, 1522 explants
# [8] = thidiazuron 4.5 mg/l, 797 explants
compound,measurement,setting,value
"CC1(C)S[C@@H]2[C@H](NC(=O)C(C(=O)O)c3ccccc3)C(=O)N2[C@H]1C(=O)O (some centres unmarked) [Carbenicil., carbenicillin]",No. of GUS+ shoots,"carbenicillin 800 mg/l, cefotaxime 0, sulbactam 0, 800 explants, EHA 101",2
"NC[C@H]1O[C@H](O[C@H]2[C@H](O)[C@@H](O[C@H]3O[C@H](CO)[C@@H](O)[C@H](N)[C@H]3O)[C@H](N)C[C@@H]2N)[C@H](O)[C@@H](O)[C@@H]1O [Kanamycin sulf., kanamycin sulfate]",regeneration frequencies,100 mg/l kanamycin or less,~100%
same,No. of GUS+ shoots,[1],3
same,No. of regenerated shoots,[1],21
same,No. of GUS+ shoots,[2],5
same,No. of regenerated shoots,[2],19
same,No. of GUS+ shoots,[3],8
same,No. of regenerated shoots,[3],15
same,transgenic shoots found at the second harvest,"second harvest, kanamycin concentration reduced",About 50%
same,optimal kanamycin sulfate concentration in the selection medium,selection medium,145 mg/L
"O.O.O.O.O.O.[Cl][Ni][Cl] [NiCl2, 6H2O]",No. of GUS+ shoots,"NiCl2, 6H2O 1.0 mg/l with BAP 1.0 mg/l, 1200 explants, EHA 101",4
same,No. of GUS+ shoots,"NiCl2, 6H2O 1.0 mg/l with BAP 5.0 mg/l, 1200 explants, EHA 101",4
same,higher transformation frequency,"addition of 1 mg/l NiCl2, 6H2O",2-4 times
"CC(C)(Oc1ccc(Cl)cc1)C(=O)O [PCIB, 2-(p-chlorophenoxy)-2-methylpropionic acid]",amount of callus,[4],reduced the amount of callus significantly
same,regeneration and number of transgenic shoots,[4],enhanced regeneration and the number of transgenic shoots
"CC1(C)[C@H](C(=O)O)N2C(=O)C[C@H]2S1(=O)=O [Sulbactam, sulbactam]",No. of GUS+ shoots,"sulbactam 100 mg/l with carbenicillin 50 mg/l and cefotaxime 50 mg/l, 800 explants, EHA 101",9
same,No. of GUS+ shoots,"sulbactam 100 mg/l with carbenicillin 100 mg/l and cefotaxime 100 mg/l, 800 explants, EHA 101",5
"O=C(Nc1ccccc1)Nc1cnns1 [Thidiazuron, thidiazuron]",subsequent cloning of the transgenic shoots,,beneficial for the subsequent cloning of the transgenic shoots
same,increase of transformation frequencies,TDZ 0.3-3.0 mg/l vs no TDZ,1.5-1.8 fold
same,optimum TDZ concentrations in the selection media,selection media,0.3 to 3.0 mg/L
same,No. of GUS+ shoots,[5],8
same,Transform. freq. (%),[5],1.08%
same,No. of GUS+ shoots,[6],9
same,Transform. freq. (%),[6],1.21%
same,No. of GUS+ shoots,[7],16
same,Transform. freq. (%),[7],1.05%
same,No. of GUS+ shoots,[8],5
same,Transform. freq. (%),[8],0.63%
benzyladenine purine [BAP],total number of regenerated shoots on 5 mg/l BAP compared with 1 mg/l,5 mg/l vs 1 mg/l BAP in selection medium,about twice as high
same,No. of GUS+ shoots,"BAP 1.0 mg/l, NiCl2, 6H2O 0 mg/l, 1200 explants, EHA 101",1
same,No. of GUS+ shoots,"BAP 5.0 mg/l, NiCl2, 6H2O 0 mg/l, 1200 explants, EHA 101",2
silver thiosulfate [STS],No. of GUS+ shoots,"STS 2.5 μM, calculated per 1000 explants, EHA 101",12
same,No. of GUS+ shoots,"STS 5.0 μM, calculated per 1000 explants, EHA 101",8
same,No. of GUS+ shoots,"STS 10.0 μM, calculated per 1000 explants, EHA 101",7
same,shoot quality,presence of STS vs absence,significantly improved shoot quality
